In patent US20110294853A1, “Bis Aromatic Compounds for Use in the Treatment of Inflammation” (priority 2008, published 2011) one finds inhibition data, which are given here for 28 compounds.

For this experiment, the target named is T1, Recombinant human LTC4 synthase (Homo sapiens, UniProt Q16873).
T1 construct: made in house; host or cells: Pichia pastoris ('Piccia pastoralis' [sic])
T1 sequence (Q16873 1-150): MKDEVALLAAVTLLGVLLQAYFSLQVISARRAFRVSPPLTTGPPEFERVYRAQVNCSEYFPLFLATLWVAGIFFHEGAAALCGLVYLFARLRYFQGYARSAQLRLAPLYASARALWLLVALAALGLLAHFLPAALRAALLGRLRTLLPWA
Kind of experiment: In vitro assay of LTC4 synthase inhibition (HPLC or HTRF detection of LTC4). The class given is biochemical. The note with it: inhibitor concentration 10 μM; percentage inhibitions of LTC4. How it is done: In the assay LTC4 synthase catalyses the reaction where the substrate LTA4 methyl ester is converted to the corresponding LTC4 methyl ester. Recombinant human LTC4 synthase is expressed in Piccia pastoralis and the purified enzyme is dissolved in 25 mM Tris-buffer pH 7.8 and stored at −20° C. The assay is performed in phosphate buffered saline (PBS) pH 7.4, supplemented with 5 mM glutathione (GSH). The reaction is terminated by addition of acetonitrile/MeOH/acetic acid (50/50/1). The assay is performed at rt in 96-well plates. Analysis of the formed LTC4 methyl ester is performed with reversed phase HPLC (Waters 2795 utilizing an Onyx Monolithic C18 column). The mobile phase consists of acetonitrile/MeOH/H2O (32.5/30/37.5) with 1% acetic acid pH adjusted with NH3 to pH 5.6, and absorbance measured at 280 nm with a Waters 2487 UV-detector.
The following is added chronologically to each well: • 1. 50 μL assay buffer, PBS with 5 mM GSH. • 2. 0.5 μL inhibitor in DMSO. • 3. 2 μL LTC4 synthase in PBS. The total protein concentration in this solution is 0.025 mg/mL. Incubation of the plate at room temperature for 10 minutes. • 4. 0.5 μL LTA4 methyl ester. Incubation of the plate at rt for 1 min. • 5. 50 μL stop solution. • 80 μL of the incubation mixture is analysed with HPLC.
Alternatively HTRF detection of LTC4 can be used:
In the assay, LTC4 synthase catalyses the reaction where the substrate LTA4 is converted to LTC4. Recombinant human LTC4 synthase is expressed in Piccia pastoralis and the purified enzyme is dissolved in 25 mM Tris-buffer pH 7.8 supplemented with 0.1 mM glutathione (GSH) and stored at −80° C. The assay is performed in phosphate buffered saline (PBS) pH 7.4 and 5 mM GSH in 384-well plates.
The following is added chronologically to each well:
1. 48 μL LTC4 synthase in PBS with 5 mM GSH. The total protein concentration in this solution is 0.5 μg/mL. 2. 1 μL inhibitor in DMSO (final concentration 10 μM). 3. Incubation of the plate at rt for 10 min. 4. 1 μL LTA4 (final concentration 2.5 μM). 5. Incubation of the plate at rt for 5 min. 6. 10 μl of the incubation mixture is analysed using HTRF detection.
For orientation: Time-resolved FRET reads energy transfer from a long-lived donor to a nearby acceptor.
On to `COc1ccc(C(=O)Nc2ccc(CCc3ccc(NC(=O)c4cccc(C(F)(F)F)c4)c(C(=O)O)c3)cc2C(=O)O)cc1` [2:1, 5-{2-[3-Carboxy-4-(4-methoxybenzoylamino)phenyl]ethyl}-2-(3-trifluoromethylbenzoylamino)benzoic acid], for which the inhibition (usually the drop in the measured response relative to a control, in per cent) at 10 µM was found to be 87%.
On to `CC(C)(C)c1ccc(C(=O)Nc2ccc(CCc3ccc(NC(=O)c4cccc(C(F)(F)F)c4)c(C(=O)O)c3)cc2C(=O)O)cc1` [2:2, 5-{2-[3-Carboxy-4-(4-tert-butylbenzoylamino)-phenyl]ethyl}-2-(3-trifluoromethylbenzoylamino)benzoic acid], for which the inhibition at 10 µM is 100%.
In the case of `O=C(Nc1ccc(CCc2ccc(NC(=O)c3ccc(C(F)(F)F)cc3)c(C(=O)O)c2)cc1)c1cccc(C(F)(F)F)c1` [2:3, 2-(4-Trifluoromethylbenzoylamino)-5-{2-[4-(3-trifluoromethylbenzoylamino)-phenyl]-ethyl}benzoic acid], the inhibition at 10 µM came to 85%.
As to `O=C(Nc1ccc(CCc2ccc(NC(=O)c3cccc(C(F)(F)F)c3)c(C(=O)O)c2)cc1C(=O)O)c1ccc(C(F)(F)F)cc1` [2:4, 5-{2-[3-Carboxy-4-(4-trifluoromethyl-benzoylamino)-phenyl]ethyl}-2-(3-trifluoromethylbenzoylamino)benzoic acid], the inhibition at 10 µM amounted to 98%.
For the compound `O=C(Nc1ccc(C#Cc2ccc(NC(=O)c3ccc(C(F)(F)F)cc3)c(C(=O)O)c2)cc1)c1cccc(C(F)(F)F)c1` [2:5, 2-(4-Trifluoromethylbenzoylamino)-5-[4-(3-trifluoromethylbenzoylamino)-phenylethynyl]-benzoic acid], the inhibition at 10 µM was 89%.
Consider `CCCCc1ccc(C(=O)Nc2ccc(OCc3ccc(NC(=O)c4cccc(Cl)c4)c(C(=O)O)c3)cc2C(=O)O)cc1` [3:1, 2-(4-Butylbenzoylamino)-5-[3-carboxy-4-(3-chlorobenzoylamino)benzyloxy]-benzoic acid], for which the inhibition at 10 µM is 100%.
With `O=C(Nc1ccc(COc2ccc(NC(=O)c3cccc(Cl)c3)c(C(=O)O)c2)cc1C(=O)O)c1cccc(Cl)c1` [3:2, 2-(3-Chlorobenzoylamino)-5-[3-carboxy-4-(3-chlorobenzoylamino)-benzyloxy]-benzoic acid], the inhibition at 10 µM turned out to be 100%.
Turning to `CCCCc1ccc(C(=O)Nc2ccc(NC(=O)c3ccc(NC(=O)c4ccc(OC(C)C)cc4)cc3)cc2C(=O)O)cc1` [4:1, 2-(4-Butylbenzoylamino)-5-[4-(4-isopropoxy-benzoylamino)benzoyl-amino]-benzoic acid], the inhibition at 10 µM amounted to 79%.
Regarding `CCCCc1ccc(C(=O)Nc2ccc(NC(=O)c3ccc(NC(=O)c4ccccc4)cc3)cc2C(=O)O)cc1` [4:2, 5-(4-Benzoylaminobenzoylamino)-2-(4-butylbenzoylamino)benzoic acid], the inhibition at 10 µM amounted to 96%.
With `CCCCc1ccc(C(=O)Nc2ccc(NC(=O)c3ccc(NS(=O)(=O)c4cccc(Cl)c4C)cc3)cc2C(=O)O)cc1` [4:3, 2-(4-Butylbenzoylamino)-5-[4-(3-chloro-2-methylbenzenesulfonylamino)-benzoylamino]-benzoic acid], the inhibition at 10 µM is 100%.
Consider `O=C(O)c1cc(NS(=O)(=O)c2ccc(Oc3ccccc3)cc2)ccc1NS(=O)(=O)c1ccc(OC(F)(F)F)cc1` [5:1, 5-(4-Phenoxyphenylsulfonamido)-2-(4-(trifluoromethoxy)phenylsulfonamido)benzoic acid], for which the inhibition at 10 µM amounted to 100%.
Turning to `CCCCc1ccc(S(=O)(=O)Nc2ccc(NS(=O)(=O)c3ccc(Oc4ccccc4Cl)cc3)cc2C(=O)O)cc1` [5:3, 2-(4-Butylphenylsulfonamido)-5-(4-(2-chloro-phenoxy)-phenylsulfonamido)benzoic acid], the inhibition at 10 µM was determined as 98%.
Consider `CCCCc1ccc(S(=O)(=O)Nc2ccc(NS(=O)(=O)c3ccc(Oc4ccccc4OC)cc3)cc2C(=O)O)cc1` [5:4, 2-(4-Butylphenylsulfonamido)-5-(4-(2-methoxy-phenoxy)phenylsulfonamido)benzoic acid], for which the inhibition at 10 µM was 100%.
The result for `CCCCOc1ccc(S(=O)(=O)Nc2ccc(NS(=O)(=O)c3ccc(Oc4ccccc4Cl)cc3)cc2C(=O)O)cc1` [5:5, 2-(4-Butoxyphenylsulfonamido)-5-(4-(2-chloro-phenoxy)-phenylsulfonamido)benzoic acid] reads 99%; that for `CCCCOc1ccc(S(=O)(=O)Nc2ccc(NCc3cccc(Oc4ccc(C(C)(C)C)cc4)c3)cc2C(=O)O)cc1` [6:1, 2-(4-Butoxyphenylsulfonamido)-5-(3-(4-tert-butylphenoxy)benzylamino)benzoic acid], 100%.
Take `CCCCOc1ccc(S(=O)(=O)Nc2ccc(NCc3cccc(OCc4ccccc4Cl)c3)cc2C(=O)O)cc1` [6:2, 2-(4-Butoxyphenylsulfonamido)-5-(3-(2-chlorobenzyloxy)benzylamino)benzoic acid]: the inhibition at 10 µM is 100%.
As for `O=C(O)c1cc(-c2ccc(NS(=O)(=O)c3ccccc3)c(C(=O)O)c2)ccc1NS(=O)(=O)c1ccccc1` [Example 1:2, 4,4′-bis(phenylsulfonamido)biphenyl-3,3′-dicarboxylic acid], the inhibition at 10 µM worked out at 92%.
On to `O=C(Nc1ccc(-c2ccc(NC(=O)c3cccc(Cl)c3)c(C(=O)O)c2)cc1C(=O)O)c1cccc(Cl)c1` [Example 1:3, 4,4′-bis(3-chlorobenzamido)biphenyl-3,3′-dicarboxylic acid], for which the inhibition at 10 µM came out at 88%.
The result for `O=C(Nc1cccc(Cl)c1)Nc1ccc(-c2ccc(NC(=O)Nc3cccc(Cl)c3)c(C(=O)O)c2)cc1C(=O)O` [Example 1:4, 4,4′-bis(3-(3-chlorophenyl)ureido)biphenyl-3,3′-dicarboxylic acid] reads 99%; that for `O=C(O)c1cc(-c2ccc(NS(=O)(=O)c3cccnc3)c(C(=O)O)c2)ccc1NS(=O)(=O)c1cccnc1` [Example 1:5, 4,4′-bis(pyridine-3-sulfonamido)biphenyl-3,3′-dicarboxylic acid], 69%; that for `CC(C)(C)c1ccc(C(=O)Nc2ccc(-c3ccc(NC(=O)c4ccc(C(C)(C)C)cc4)c(C(=O)O)c3)cc2C(=O)O)cc1` [Example 1:6, 4,4′-bis(4-tert-butylbenzamido)biphenyl-3,3′-dicarboxylic acid], 100%.
Consider `O=C(Cc1ccc(Cl)cc1)Nc1ccc(-c2ccc(NC(=O)Cc3ccc(Cl)cc3)c(C(=O)O)c2)cc1C(=O)O` [Example 1:7, 4,4′-bis(2-(4-chlorophenyl)acetamido)biphenyl-3,3′-dicarboxylic acid], for which the inhibition at 10 µM was found to be 100%.
Turning to `Nc1ccccc1C(=O)Nc1ccc(-c2ccc(NC(=O)c3ccccc3N)c(C(=O)O)c2)cc1C(=O)O` [Example 1:8, 4,4′-bis(2-aminobenzamido)biphenyl-3,3′-dicarboxylic acid], the inhibition at 10 µM worked out at 100%.
Take `Cc1ccc(S(=O)(=O)Nc2ccc(-c3ccc(NS(=O)(=O)c4ccc(C)cc4)c(C(=O)O)c3)cc2C(=O)O)cc1` [Example 1:9, 4,4′-bis(4-methylphenylsulfonamido)biphenyl-3,3′-dicarboxylic acid]: the inhibition at 10 µM was 89%.
Regarding `O=C(O)c1cc(-c2ccc(NC(=O)c3cccc4ccccc34)c(C(=O)O)c2)ccc1NC(=O)c1cccc2ccccc12` [Example 1:10, 4,4′-bis(1-naphthamido)biphenyl-3,3′-dicarboxylic acid], the inhibition at 10 µM was 98%.
Next, `O=C(Nc1ccc(-c2ccc(NC(=O)c3ccccc3)c(C(=O)O)c2)cc1C(=O)O)c1ccccc1` [Example 1:11, 4,4′-bis(benzamido)biphenyl-3,3′-dicarboxylic acid]: 95%; `CC(=O)Oc1ccc(C(=O)Nc2ccc(-c3ccc(NC(=O)c4ccc(OC(C)=O)cc4)c(C(=O)O)c3)cc2C(=O)O)cc1` [Example 1:12, 4,4′-bis(4-acetoxybenzamido)biphenyl-3,3′-dicarboxylic acid]: 97%.
Turning to `CCCCc1ccc(S(=O)(=O)Nc2ccc(NS(=O)(=O)c3ccc(Oc4ccccc4)cc3)cc2C(=O)O)cc1` [Example 5:2, 2-(4-Butylphenylsulfonamido)-5-(4-phenoxyphenylsulfonamido)-benzoic acid], the inhibition at 10 µM came to 100%.
